This note sets out measurements from ChEMBL document CHEMBL1136712, “Oxyguanidines: application to non-peptidic phenyl-based thrombin inhibitors” (Bioorg Med Chem Lett, 2003).

For one series, the target named is Prothrombin (Homo sapiens, UniProt P00734). Nature of the series: Inhibitory activity against alpha-human thrombin.
Series [1] is described as follows: Half life period by iv administration in dog at a dose of 6 mg/kg. It is filed as ADME, organism-based, Canis lupus familiaris. Also noted: dose 6 mg/kg, route intravenous. The conditions noted are these: in vivo.
The target in a further series is Serine protease 1 (Homo sapiens, UniProt P07477). In words: In vitro inhibitory activity against serine protease Trypsin.
A short description of series [2]: In vitro metabolic potential in human liver microsomes. It is filed as ADME, Microsome. On the technique in general: Liver microsomes are vesicles of endoplasmic reticulum, rich in cytochrome P450 enzymes.
Series [3] can be described thus: Plasma clearance rate by iv administration in dog at a dose of 6 mg/kg. It is filed as ADME, organism-based, Canis lupus familiaris. Also noted: dose 6 mg/kg, route intravenous.
The species entered for another series is Mus musculus. Nature of the series: In vitro metabolic potential in mouse liver microsomes. It is filed as ADME.
For a further series, the target named is Plasminogen (Homo sapiens, UniProt P00747). In words: In vitro inhibitory activity against serine protease Plasmin.
The species entered for a further series is Canis familiaris. In words: In vitro metabolic potential in dog liver microsomes. The class given is ADME, Canis lupus familiaris.
In the next series the target is T1, Neutrophil elastase (Homo sapiens, UniProt P08246).
T1 sequence (P08246 whole entry): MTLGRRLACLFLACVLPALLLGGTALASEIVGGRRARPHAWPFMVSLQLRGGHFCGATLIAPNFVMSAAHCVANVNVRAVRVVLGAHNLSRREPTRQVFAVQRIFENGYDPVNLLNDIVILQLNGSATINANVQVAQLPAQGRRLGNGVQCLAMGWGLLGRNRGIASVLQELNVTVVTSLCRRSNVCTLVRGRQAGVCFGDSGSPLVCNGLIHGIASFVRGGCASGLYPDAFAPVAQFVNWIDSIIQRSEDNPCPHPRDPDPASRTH
Nature of the series: In vitro inhibitory activity against serine protease Elastase.

Another series has as its target Chymotrypsinogen B (Homo sapiens, UniProt P17538). In words: In vitro inhibitory activity against serine protease Chymotrypsin.
The nature of series [4]: Oral bioavailability in dog. It is filed as ADME, organism-based, Canis lupus familiaris. The conditions noted are these: in vivo.
A further series is filed under the species Rattus norvegicus. In words: In vitro metabolic potential in rat liver microsomes. The class given is ADME.
The target of a further series is Coagulation factor X (Homo sapiens, UniProt P00742). Nature of the series: In vitro inhibitory activity against serine protease FXa.
Series [5] in a line: Disassociation constant was determined. It is filed as ADME.
The species named for the next series is Homo sapiens. Nature of the series: The apparent permeability coefficient (Papp) was quantitated in the human Caco-2 monolayer assay. It is filed as functional.

Plasminogen, sequence (P00747 97-580 limits assumed): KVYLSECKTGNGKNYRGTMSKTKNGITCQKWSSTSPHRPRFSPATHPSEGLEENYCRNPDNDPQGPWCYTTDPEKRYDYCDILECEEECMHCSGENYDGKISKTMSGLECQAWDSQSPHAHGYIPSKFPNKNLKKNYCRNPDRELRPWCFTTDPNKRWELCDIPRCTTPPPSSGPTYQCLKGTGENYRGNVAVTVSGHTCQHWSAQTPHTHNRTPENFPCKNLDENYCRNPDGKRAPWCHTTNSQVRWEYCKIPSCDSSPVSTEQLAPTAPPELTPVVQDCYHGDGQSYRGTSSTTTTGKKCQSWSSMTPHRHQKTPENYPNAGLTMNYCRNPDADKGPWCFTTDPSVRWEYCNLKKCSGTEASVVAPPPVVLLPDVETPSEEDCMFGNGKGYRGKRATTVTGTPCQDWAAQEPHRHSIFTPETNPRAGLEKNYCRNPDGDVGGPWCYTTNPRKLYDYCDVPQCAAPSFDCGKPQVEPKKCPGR
Plasminogen, sequence (P00747 581-810 limits assumed): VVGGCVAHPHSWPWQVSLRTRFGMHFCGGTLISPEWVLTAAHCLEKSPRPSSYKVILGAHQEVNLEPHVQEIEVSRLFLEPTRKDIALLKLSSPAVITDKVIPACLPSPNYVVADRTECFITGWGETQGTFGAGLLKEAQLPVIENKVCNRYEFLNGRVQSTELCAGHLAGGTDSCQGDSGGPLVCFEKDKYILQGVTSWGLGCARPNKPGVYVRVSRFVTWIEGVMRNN
Serine protease 1, sequence (P07477 whole entry): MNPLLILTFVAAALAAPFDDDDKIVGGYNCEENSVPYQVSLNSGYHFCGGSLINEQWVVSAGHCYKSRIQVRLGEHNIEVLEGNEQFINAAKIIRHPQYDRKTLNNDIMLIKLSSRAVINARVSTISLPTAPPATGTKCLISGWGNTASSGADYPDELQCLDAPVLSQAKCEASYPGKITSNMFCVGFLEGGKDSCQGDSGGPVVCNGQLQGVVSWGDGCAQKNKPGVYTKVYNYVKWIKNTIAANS
Chymotrypsinogen B, sequence (P17538 34-164 limits assumed, other chains not shown): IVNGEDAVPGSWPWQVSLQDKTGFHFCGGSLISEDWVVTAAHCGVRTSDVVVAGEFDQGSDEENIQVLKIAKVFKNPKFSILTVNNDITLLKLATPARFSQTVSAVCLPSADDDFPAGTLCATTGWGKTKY
Chymotrypsinogen B, sequence (P17538 167-263 limits assumed, other chains not shown): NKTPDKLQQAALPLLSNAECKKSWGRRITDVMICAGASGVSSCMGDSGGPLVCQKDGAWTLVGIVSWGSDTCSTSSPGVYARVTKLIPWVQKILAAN
Coagulation factor X, sequence (P00742 41-179 limits assumed): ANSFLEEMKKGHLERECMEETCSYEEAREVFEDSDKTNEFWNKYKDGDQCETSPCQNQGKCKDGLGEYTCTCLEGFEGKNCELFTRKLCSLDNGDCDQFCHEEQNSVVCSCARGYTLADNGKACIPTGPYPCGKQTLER
Coagulation factor X, sequence (P00742 235-488 limits assumed): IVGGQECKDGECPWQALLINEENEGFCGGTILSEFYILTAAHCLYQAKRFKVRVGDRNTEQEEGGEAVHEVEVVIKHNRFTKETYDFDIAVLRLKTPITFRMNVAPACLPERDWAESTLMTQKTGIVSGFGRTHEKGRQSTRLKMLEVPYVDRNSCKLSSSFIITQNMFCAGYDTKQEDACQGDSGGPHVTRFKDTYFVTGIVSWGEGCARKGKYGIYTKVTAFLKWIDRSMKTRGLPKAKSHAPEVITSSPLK

The Ki is the equilibrium dissociation constant of an inhibitor or competing ligand from its target. Take `CS(=O)(=O)c1ccccc1S(=O)(=O)Oc1cc(F)cc(OCC2(CON=C(N)N)CC2)c1`: the Ki at Prothrombin was found to be 49.3 nM.

In turn, `COc1cc(OCCCONC(=N)N)cc(OS(=O)(=O)c2ccccc2S(C)(=O)=O)c1` yielded a Ki at Prothrombin of 34.6 nM.

As to `Cc1cc(OCCCONC(=N)N)cc(OS(=O)(=O)c2ccccc2S(=O)(=O)c2ccccc2)c1`, on Prothrombin, the affinity corresponds to a Ki of 4.8 nM.

The compound `Cc1cc(OCC(O)CON=C(N)N)cc(OS(=O)(=O)c2ccccc2S(C)(=O)=O)c1` (stereo not drawn) came in with a Ki on Prothrombin of 137 nM.

In turn, `Cc1cc(OCCCONC(=N)N)cc(OS(=O)(=O)c2ccc(S(C)(=O)=O)cc2S(C)(=O)=O)c1` had a Ki on Prothrombin of 749 nM.

As usually defined, the half-life is how long it takes for the measured level to halve. Low values mean fast loss, high ones slow loss. As a reminder, the clearance is a measure of how efficiently the substance is removed, as volume per time. The low end stands for a low capacity for elimination, the high end for a high capacity for elimination. A word on the bioavailability: it is the share of a dose that reaches the circulation, judged against a reference dose that is usually intravenous. High values mean good availability, low ones poor availability. The term pKa denotes the negative logarithm of the acid dissociation constant. On to `Cc1cc(OCCCONC(=N)N)cc(OS(=O)(=O)c2ccccc2S(C)(=O)=O)c1`, for which the half-life in [1] was 7.3 h. Also, the Ki on Serine protease 1, at Plasminogen, on Neutrophil elastase, on Chymotrypsinogen B and on Coagulation factor X was above 22000 nM throughout. Besides, the Microsomal stability in series [2] was 50.4 pg min-1 (mg of protein)-1; in the series filed under Mus musculus, 30.8 pg min-1 (mg of protein)-1; in the series filed under Canis familiaris, 21.1 pg min-1 (mg of protein)-1; in the series filed under Rattus norvegicus it was 69.5 pg min-1 (mg of protein)-1. Moreover, in series [3], the clearance amounted to 6.9 mL/min/kg. The compound also returned a bioavailability in series [4] of 95%. The same compound came in with a pKa in series [5] of 7.05.

For orientation: Papp means a coefficient for how fast a substance crosses the barrier. For `Cc1cc(OCCCON=C(N)N)cc(OS(=O)(=O)c2ccccc2S(C)(=O)=O)c1`, the Papp in the series filed under Homo sapiens came out at 2.4 ×10⁻⁶ cm/s.

The compound `C=C(CONC(=N)N)COc1cc(C)cc(OS(=O)(=O)c2ccccc2S(C)(=O)=O)c1` registered a Ki on Prothrombin of 32.4 nM.

For `Cc1cc(OCCCON=C(N)N)cc(OS(=O)(=O)c2ccccc2N)c1`, at Prothrombin, the Ki came out at 86.6 nM.

On Prothrombin, `Cc1cc(OCCCONC(=N)N)cc(OS(=O)(=O)c2ccccc2C#N)c1` had a Ki of 9.9 nM.

At Prothrombin, `Cc1cc(OCCCONC(=N)N)cc(OS(=O)(=O)c2ccc3c(c2)S(=O)(=O)CC3)c1` returned a Ki of 102 nM.

Consider `Cc1cc(OCCCON=C(N)N)cc(OS(=O)(=O)c2cccc(S(C)(=O)=O)c2)c1`, for which the Ki at Prothrombin was 204 nM.

Take `Cc1cc(OCCCON=C(N)N)cc(OS(=O)(=O)c2cccc3c2NCCC3)c1`: the affinity at Prothrombin corresponds to a Ki of 31 nM.

In turn, `Cc1cc(OCC(F)CON=C(N)N)cc(OS(=O)(=O)c2ccccc2S(C)(=O)=O)c1` (stereo not drawn) displayed a Ki at Prothrombin of 114 nM.

On Prothrombin, `CCc1cc(OCCCONC(=N)N)cc(OS(=O)(=O)c2ccccc2S(C)(=O)=O)c1` displayed a Ki of 29.7 nM.

On to `CS(=O)(=O)c1ccccc1S(=O)(=O)Oc1cc(Cl)cc(OCCCON=C(N)N)c1`, for which the Ki at Prothrombin is 39.4 nM.

On to `CS(=O)(=O)c1ccccc1S(=O)(=O)Oc1cc(CO)cc(OCC2(CON=C(N)N)CC2)c1`, for which the affinity on Prothrombin corresponds to a Ki of 403 nM.

At Prothrombin, `Cc1cc(OCC(F)(F)CON=C(N)N)cc(OS(=O)(=O)c2ccccc2S(C)(=O)=O)c1` displayed a Ki of 364 nM.

Compound `Cc1cc(OCCCON=C(N)N)cc(OS(=O)(=O)c2cccc3cnccc23)c1` displayed a Ki on Prothrombin of 13.2 nM.

In the case of `Cc1cc(OCCCONC(=N)N)cc(OS(=O)(=O)c2cccc3cccnc23)c1`, on Prothrombin, the Ki was found to be 6.7 nM.

Compound `COc1ccccc1S(=O)(=O)Oc1cc(C)cc(OCCCONC(=N)N)c1` came in with a Ki at Prothrombin of 6.7 nM.
